Test results taken from ChEMBL document CHEMBL1129515, “Synthesis and biological evaluation of1',2'-seconucleo-5'- phosphonates” (1996).

Legend:
[1] = test system: Sandfly fever Sicilian virus; test: (§1) Inhibitory activity of compound against […] was evaluated in vitro; Inactive; type: functional
Rift Valley fever virus = test: as §1; type: functional
Pichinde virus = test: Inhibitory activity of compound against pichinde virus (PIC) was evaluated in vitro; Inactive; type: functional
unidentified adenovirus = test: Inhibitory activity of compound against Adenovirus type 2 (AD2) was evaluated in vitro; Inactive; type: functional
Punta Toro virus = test: Inhibitory activity of compound against punto toro virus (PT) was evaluated in vitro; Inactive; type: functional
[2] = test system: Human immunodeficiency virus; test: Inhibitory activity of compound against human immunodeficiency virus (HIV) was evaluated in vitro; Inactive; type: functional, Human immunodeficiency virus 1
[3] = test system: Vesicular stomatitis virus; test: Inhibitory activity of compound against Vesicular stomatitis virus (VSV) was evaluated in vitro; Inactive; type: functional
Yellow fever virus = test: Inhibitory activity of compound against Yellow fever virus (YF) was evaluated in vitro; Inactive; type: functional
[4] = test system: Japanese encephalitis virus; test: Inhibitory activity of compound against japanese encephalitis virus (JBE) was evaluated in vitro; Inactive; type: functional
[5] = test system: Venezuelan equine encephalitis virus; test: Inhibitory activity of compound against Venezuelan equine encephalomyelitis virus (VEE) was evaluated in vitro; Inactive; type: functional

Measured: Dose

Cc1cn(COC2CP(=O)(Oc3ccccc3)OC2C)c(=O)[nH]c1=O (stereo not given)
320 µg/mL: all assays above

Cc1cn(COC(CP(=O)(O)O)C(C)O)c(=O)[nH]c1=O (stereo not given)
320 µg/mL: all assays above

CCOP(=O)(C[C@H](O)[C@H](COCc1ccccc1)OCc1ccccc1)OCC
320 µg/mL: all assays above

CC(O)C(CP(=O)(O)O)OCn1ccc(=O)[nH]c1=O (stereo not given)
320 µg/mL: all assays above

CC(O)C(CP(=O)(O)O)OCn1ccc(N)nc1=O (stereo not given)
320 µg/mL: all assays above

CCOP(=O)(C[C@H](O)[C@H](C)OCc1ccccc1)OCC
320 µg/mL: all assays above

CCOP(=O)(O)CC(OCn1cc(C)c(=O)[nH]c1=O)C(C)O (stereo not given)
320 µg/mL: all assays above

Cc1cn(COC(CP(=O)(O)O)C(O)CO)c(=O)[nH]c1=O (stereo not given)
320 µg/mL: all assays above

CCOP(=O)(O)CC(OCn1ccc(=O)[nH]c1=O)C(C)O (stereo not given)
320 µg/mL: all assays above
